Common to all, as to assay type: cell-based, human
In one series the test system is A549 (lung carcinoma). Briefly: CIMA assay (tetrazolium reduction, cell viability, 72 h). Conditions: A549. As for the experimental part: (§1) Prepared extracts were assessed following chronic exposure conditions in which cells were seeded at 2×10^3 cells/well (96 wells-plate) and incubated with test compounds for 72 h. Each compound was evaluated over a range of concentrations (0, 10, 25, 50 or 100 μg/ml). Cell proliferation was initially assessed using a standard colorimetric indicator of metabolic activity (CIMA) assay. In this assay, tetrazole reduction was evaluated as a measure of metabolic function that evaluates mitochondrial activity to determine the extent of cell proliferation within a culture. This assay is based on the reduction of yellow tetrazolium salt to purple formazan by mitochondrial reductases enzyme in viable cells, resulting in a color change that confers a change in absorbance. Seven human cell lines were selected for primary evaluation: U373 (glioblastoma-astrocytoma), A549 (lung carcinoma), THP-1 (acute monocytic leukemia), MCF7 (mammary gland adenocarcinoma), SKOV3 (ovarian adenocarcinoma), PC3 (prostate adenocarcinoma) and CCD1079SK (fibroblast, noncancerous but proliferating) (see FIG. 2 and Table 2). Results are expressed in Table 2 as % viability (means±standard deviation of three replicates), with LD50/IC50 values in Tables 3 and 6. […] The maximum DMSO concentration was 1% at 100 μg/ml with 5% SDS used as a known toxic inducer.
(§2) Experimental: Stock solutions of the test compounds were prepared in dimethylsulfoxide (DMSO) at 10 mg/ml and stored at −20° C. until used. This preparation ensures that the DMSO content delivered to cells in culture never exceeds 1%. Appropriate cells number, based on previous assays, were seeded in 96 well plate and incubated with test compounds (up to 8 log concentrations, 0 to 50 or 100 μg/ml) for 72 h. Cell proliferation was initially assessed using a standard colorimetric indicator of metabolic activity (CIMA) assay. In this assay, reduction of yellow tetrazolium salt (MTT) to purple formazan by mitochondrial reductases enzymes in viable cells were measured as change in absorbance (λ=500-600).
(§3) Seven human cell lines were evaluated: U373 (glioblastoma-astrocytoma), A549 (lung carcinoma), PC3 (prostate adenocarcinoma), THP1 (acute monocytic leukemia), MDA-MB-231 (mammary gland adenocarcinoma), SKOV3 (ovarian adenocarcinoma) and CCD1079Sk (normal skin fibroblast) cells.

For series [1], the system named is CCD1079SK (fibroblast, noncancerous but proliferating). The description is as above. Conditions: CCD. As for the experimental part:
as §1, §2, §3

The subject of series [2] is PC3 (prostate adenocarcinoma). The series is described as above. Conditions: PC3. As for the experimental part: as §1, §2, §3
Series [3] has as its system SKOV3 (ovarian adenocarcinoma). The series is described as above. The note with it: SKOV. As for the experimental part:
as §1, §2, §3

Series [4] concerns THP-1 (acute monocytic leukemia). The description is as above. Conditions: THP-1. As for the experimental part: as §1, §2, §3
Series [5] concerns U373 (glioblastoma-astrocytoma). The series is described as above. Conditions: U373. As for the experimental part:
as §1, §2, §3

Series [6] concerns MDA-MB-231 (mammary gland adenocarcinoma). In words: CIMA assay (MTT, 72 h). Conditions: MDA-MB. As for the experimental part:
Experimental: Stock solutions of the test compounds were prepared in dimethylsulfoxide (DMSO) at 10 mg/ml and stored at −20° C. until used. This preparation ensures that the DMSO content delivered to cells in culture never exceeds 1%. […] Cell proliferation was initially assessed using a standard colorimetric indicator of metabolic activity (CIMA) assay. In this assay, reduction of yellow tetrazolium salt (MTT) to purple formazan by mitochondrial reductases enzymes in viable cells were measured as change in absorbance (λ=500-600).
as §3

In the case of `CCCCCC(O)C(O)/C=C/C1CCCCCCCC(=O)O1` (racemic) [compound (I), 12,13-dihydroxy-10-octadecen-9-olide], the “fold change viability (AVG)” value in the series with A549 (lung carcinoma) (1 ug/mL) is reported as 1.11; with A549 (lung carcinoma) (10 ug/mL), 1.09; with A549 (lung carcinoma) (50 ug/mL), 1.08; in the series with A549 (lung carcinoma) (100 ug/mL), 0.72; in series [1] (1 ug/mL) it was 1.00; in series [1] (10 ug/mL), 0.92. For the same compound, the “fold change viability (AVG)” value in series [1] (50 ug/mL) worked out at 0.99; in series [1] (100 ug/mL), 0.18; in series [2] (1 ug/mL), 1.03; in series [2] (10 ug/mL) it was 0.96; in series [2] (50 ug/mL) it was 1.01; in series [2] (100 ug/mL), 0.19. In addition, the “fold change viability (AVG)” value is 1.04 in series [3] (1 ug/mL); 1.05 in series [3] (10 ug/mL); 1.01 in series [3] (50 ug/mL); 0.92 in series [3] (100 ug/mL); 1.09 in series [4] (1 ug/mL); 0.95 in series [4] (10 ug/mL). The “fold change viability (AVG)” value in series [4] (50 ug/mL) came out at 0.77; in series [4] (100 ug/mL) it was 0.50; in series [5] (1 ug/mL) it was 0.92; in series [5] (10 ug/mL), 0.86; in series [5] (50 ug/mL), 0.69; in series [5] (100 ug/mL), 0.03. In addition, the “fold change viability (AVG)” value stood at 1.10 in series [6] (1 ug/mL), 1.05 in series [6] (10 ug/mL), 0.72 in series [6] (50 ug/mL) and 0.21 in series [6] (100 ug/mL).

The compound `CCCCCCCCCCCCOS(=O)(=O)[O-].[Na+]` [SDS, reference compound] registered an average cell viability in series [6] (positive control, 250 ug/ml) of 14.

Source of the values: patent US20210323940A1 (OCEANS LTD., priority 2018, published 2021).
